# Laboratory results as given in ChEMBL document CHEMBL1649296, “Modifying culture conditions in chemical library screening identifies alternative inhibitors of mycobacteria” (Antimicrob Agents Chemother, 2009).
# Numbered stars: 1 amine (or outer) side, 2 acyl side, 3 side chain; on linkers, the order of the positions; unused ones are H or OH. Bridge positions count the residues as written; N and C are the ends. Square brackets hold non-standard residues; d marks the D form. Peptide text beside a SMILES is read from it. * marks the point of attachment. ξ: configuration not given here. X1 = N=C1NCCC([C@H](N[*:1])C(=O)[*:2])N1; ΔAla(Z-3-ureido) = NC(=O)N/C=C(\N)C(=O)O; ξβ3hOrn = NCCCC(N)CC(=O)*; Dap = NC[C@H](N)C(=O)O
# Assays:
# Assay type in all cases: functional, organism-based
# [1] = system: Mycolicibacterium smegmatis; assay: Antimycobacterial activity against Mycobacterium smegmatis by GFP-based fluorescence assay
# [2] = system: Mycolicibacterium smegmatis; assay: Antimycobacterial activity against Mycobacterium smegmatis assessed as growth inhibition in mid-logarithmic phase by spectrophotometry
# [3] = system: Mycolicibacterium smegmatis; assay: Antimycobacterial activity against Mycobacterium smegmatis grown in Luria-Bertani broth medium assessed as growth inhibition in mid-logarithmic phase by GFP-based fluorescence assay; conditions: Mycolicibacterium smegmatis
# [4] = system: Mycolicibacterium smegmatis; assay: Antimycobacterial activity against Mycobacterium smegmatis grown in Luria-Bertani broth medium assessed as growth inhibition in mid-logarithmic phase by spectrophotometry; conditions: Mycolicibacterium smegmatis
# [5] = system: Mycolicibacterium smegmatis; assay: Antimycobacterial activity against Mycobacterium smegmatis grown in carbon-limited broth medium assessed as growth inhibition in mid-logarithmic phase by GFP-based fluorescence assay; conditions: Mycolicibacterium smegmatis
# [6] = system: Mycolicibacterium smegmatis; assay: Antimycobacterial activity against Mycobacterium smegmatis grown in nitrogen -limited broth medium assessed as growth inhibition in mid-logarithmic phase by spectrophotometry; conditions: Mycolicibacterium smegmatis
# [7] = system: Mycolicibacterium smegmatis; assay: Antimycobacterial activity against Mycobacterium smegmatis grown in nitrogen -limited broth medium assessed as growth inhibition in mid-logarithmic phase by GFP-based fluorescence assay; conditions: Mycolicibacterium smegmatis
# [8] = system: Mycolicibacterium smegmatis; assay: Antimycobacterial activity against Mycobacterium smegmatis grown in carbon-limited broth medium assessed as growth inhibition in mid-logarithmic phase by spectrophotometry; conditions: Mycolicibacterium smegmatis
SMILES,MIC [1] [µM],IC50 ([1]; read-out: IC50) [µM],IC50 [2] [µM],MIC [2] [µM],also measured
C[C@@H]1NC(=O)[C@@H](N)CNC(=O)[C@H](C2CCNC(=N)N2)NC(=O)/C(=C/NC(N)=O)NC(=O)[C@H](CNC(=O)CC(N)CCCN)NC1=O.N=C1NCCC([C@@H]2NC(=O)/C(=C/NC(N)=O)NC(=O)[C@H](CNC(=O)CC(N)CCCN)NC(=O)[C@H](CO)NC(=O)[C@@H](N)CNC2=O)N1 (stereo partly drawn) [CAPREOMYCIN] (H-[Dap]S[Dap](ξβ3hOrn)[ΔAla(Z-3-ureido)][X1]; lactam 1-C),12.5,1.78,2.12,12.5,–
O=C(O)c1cn(C2CC2)c2cc(N3CCNCC3)c(F)cc2c1=O [CIPROFLOXACIN],12.5,–,1.98,12.5,IC50 [1]: 1.07 µM
CC[C@@H](CO)NCCN[C@@H](CC)CO [ETHAMBUTOL],12.5,3.2,3.66,12.5,–
CCc1cc(C(N)=S)ccn1 [ETHIONAMIDE],100,6.75,7.66,100,–
CO[C@H]1/C=C/O[C@@]2(C)Oc3c(C)c(O)c4c(O)c(c(/C=N/N5CCN(C)CC5)c(O)c4c3C2=O)NC(=O)/C(C)=C\C=C\[C@H](C)[C@H](O)[C@@H](C)[C@@H](O)[C@@H](C)[C@H](OC(C)=O)[C@@H]1C [RIFAMPIN],6.25,3.11,4.36,6.25,–
CN[C@@H]1[C@H](O[C@H]2[C@H](O[C@H]3[C@H](O)[C@@H](O)[C@H](N=C(N)N)[C@@H](O)[C@@H]3N=C(N)N)O[C@@H](C)[C@]2(O)C=O)O[C@@H](CO)[C@H](O)[C@H]1O [STREPTOMYCIN],1.56,0.48,0.5,1.56,–
CN(C)[C@@H]1C(O)=C(C(N)=O)C(=O)[C@@]2(O)C(O)=C3C(=O)c4c(O)cccc4[C@@](C)(O)[C@H]3C[C@@H]12 [TETRACYCLINE],6.25,0.33,0.41,6.25,–
CN[C@H](CC(C)C)C(=O)N[C@H]1C(=O)N[C@@H](CC(N)=O)C(=O)N[C@H]2C(=O)N[C@H]3C(=O)N[C@H](C(=O)N[C@H](C(=O)O)c4cc(O)cc(O)c4-c4cc3ccc4O)[C@H](O)c3ccc(c(Cl)c3)Oc3cc2cc(c3O[C@@H]2O[C@H](CO)[C@@H](O)[C@H](O)[C@H]2O[C@H]2C[C@](C)(N)[C@H](O)[C@H](C)O2)Oc2ccc(cc2Cl)[C@H]1O [VANCOMYCIN],–,–,–,–,IC50 [3]: 3.18 µM; MIC [3]: 12.5 µM; IC50 [4]: 3.18 µM; MIC [4]: 12.5 µM; IC50 [5]: 16.7 µM; MIC [5]: 25 µM; IC50 [6]: 11.1 µM; MIC [6]: 25 µM; IC50 [7]: 11.1 µM; MIC [7]: 25 µM; IC50 [8]: 16.7 µM; MIC [8]: 25 µM
